# Values quoted from earlier work in US20030176421A1, “PROKINETIC AGENTS FOR TREATING GASTRIC HYPOMOTILITY AND RELATED DISORDERS” (priority 1999, published 2003).
# No end group written: not given here.
# Tests used:
# [1] = system: sensitized guinea-pig colon
# [2] = system: cat lower oesophageal sphincter; settings: for cAMP and cGMP levels after exposure: cat LOS; for relaxation of circular smooth muscle (LOS): cat
# [3] = system: canine colonic smooth muscle; settings: in the presence of forskolin; concentration dependent
# [4] = system: guinea-pig gastric muscle; settings: without altering membrane potential significantly
# [5] = system: guinea pig ileum longitudinal muscle; settings: potentiation at lower doses, inhibition at higher concentrations for theophylline; entire concentration range for the others
# [6] = system: isolated canine internal anal sphincter
# [7] = system: human lower oesophageal sphincter
compound,measurement,setting,value
O=S(=O)(Nc1cccc(OCc2ccc3ccccc3n2)c1)C(F)(F)F [ritolukast],slower developing late contraction after antigen,[1],reduced
helospectin,cAMP and cGMP levels after exposure,[2],both cAMP and cGMP levels were increased
CCCCOc1cc(CC2CNC(=O)N2)ccc1OC (centres unmarked) [Ro 20-1724],potency order for decrease in carbachol-induced contractile activity,[3],rolipram>Ro 20-1724>isobutyl methylxanthine>SB 94120>siguazodan>zaprinast
CCCOc1ccccc1-c1nc2[nH]nnc2c(=O)[nH]1 [zaprinast],relaxation of muscle strips,pig gastric fundus,induce concentration-dependent relaxations
same,effect on NANC relaxations induced by electrical stimulation at intervals,"pig gastric fundus; circular, but not longitudinal muscle strips",increases the duration of the NANC relaxations
same,potency order for decrease in carbachol-induced contractile activity,[3],rolipram>Ro 20-1724>isobutyl methylxanthine>SB 94120>siguazodan>zaprinast
COc1ccc(C2CNC(=O)C2)cc1OC1CCCC1 (centres unmarked) [rolipram],effect on slow waves,[4],markedly reduce the frequency of slow waves
same,potency order for decrease in carbachol-induced contractile activity,[3],rolipram>Ro 20-1724>isobutyl methylxanthine>SB 94120>siguazodan>zaprinast
COc1ccc(CN(CCN(C)C)c2ccccn2)cc1 [mepyramine],initial rapid response of antigen-induced contraction,[1],blocked
Cn1c(=O)c2[nH]cnc2n(C)c1=O [theophylline],effect on slow waves,[4],markedly reduce the frequency of slow waves
same,effect on contractile response to transmural cholinergic nerve stimulation,[5],biphasic effect on cholinergic transmission
C=C[C@@]1(C)CC(=O)[C@]2(O)[C@@]3(C)[C@@H](O)CCC(C)(C)[C@@H]3[C@H](O)[C@H](OC(C)=O)[C@@]2(C)O1 [forskolin],relaxation of muscle strips,pig gastric fundus,induce concentration-dependent relaxations
same,relaxation by intrinsic inhibitory neurons and associated cGMP elevation,[6],blocked
CN/C(=N\c1ccc(C2=NNC(=O)CC2C)cc1)NC#N (centres unmarked) [siguazodan],potency order for decrease in carbachol-induced contractile activity,[3],rolipram>Ro 20-1724>isobutyl methylxanthine>SB 94120>siguazodan>zaprinast
OCCN(CCO)c1nc(N2CCCCC2)c2nc(N(CCO)CCO)nc(N3CCCCC3)c2n1 [dipyridamole],effect on contractile response to transmural cholinergic nerve stimulation,[5],depression of the contractile responses
"vasoactive intestinal peptide (HSDAVFTDNYTRLRKQMAVKKYLNSILN; ends and bridges not checked; UniProt P01282 125-152, looked up) [VIP]",relaxation of circular smooth muscle (LOS),[7],induced concentration-dependent relaxations
same,relaxation of circular smooth muscle (LOS),[2],induced concentration-dependent relaxations
same,cAMP and cGMP levels after exposure,[2],increase in cAMP levels only
"CC(C)Cn1c(=O)n(C)c(=O)c2[nH]cnc21 [IBMX, 3-isobutyl-1-methylxanthine]",effect on slow waves,[4],markedly reduce the frequency of slow waves
same,relaxation of muscle strips,pig gastric fundus,induce concentration-dependent relaxations
same,potency order for decrease in carbachol-induced contractile activity,[3],rolipram>Ro 20-1724>isobutyl methylxanthine>SB 94120>siguazodan>zaprinast
"[N]=O [NO, nitric oxide]",increase in cGMP content,pig gastric fundus,~40 fold
COc1cc(C(=O)OCCCN2CCCN(CCCOC(=O)c3cc(OC)c(OC)c(OC)c3)CC2)cc(OC)c1OC [dilazep],effect on contractile response to transmural cholinergic nerve stimulation,[5],depression of the contractile responses
pituitary adenylate cyclase activating peptide [PACAP],relaxation of circular smooth muscle (LOS),[7],induced concentration-dependent relaxations
same,relaxation of circular smooth muscle (LOS),[2],induced concentration-dependent relaxations
same,cAMP and cGMP levels after exposure,[2],both cAMP and cGMP levels were increased
